According to ChEMBL document CHEMBL1152970, “Optimization of a series of 2,4-diaminopyridines as neuropeptide Y Y1 receptor antagonists with reduced hERG activity” (Bioorg Med Chem Lett, 2009):

What was measured:
[1] = Plasma concentration in mdr1a deficient CF-1 mouse at 30 mg/kg, ip after 30 mins; type: ADME, organism-based; parameters: dose 30 mg/kg, route intraperitoneal; conditions: CF-1 (mdr1a deficient)
Brain [2] = assay: Drug level in mdr1a deficient CF-1 mouse brain at 30 mg/kg, ip after 30 mins; type: ADME, organism-based; parameters: dose 30 mg/kg, route intraperitoneal; conditions: in vivo, 0.5 h
[3] = Ratio of drug level in brain to plasma in mdr1a deficient CF-1 mouse at 30 mg/kg, ip after 30 mins; type: ADME, organism-based; parameters: dose 30 mg/kg, route intraperitoneal; conditions: CF-1 (mdr1a deficient)
[4] = Plasma concentration in C57BL/6 mouse plasma at 30 mg/kg, ip after 30 mins; type: ADME, organism-based, C57BL6; parameters: dose 30 mg/kg, route intraperitoneal
Brain [5] = assay: Drug level in C57BL/6 mouse brain at 30 mg/kg, ip after 30 mins; type: ADME, organism-based, C57BL6; parameters: dose 30 mg/kg, route intraperitoneal; conditions: in vivo, 0.5 h
[6] = Ratio of drug level in brain to plasma in C57BL/6 mouse at 30 mg/kg, ip after 30 mins; type: ADME, organism-based, C57BL6; parameters: dose 30 mg/kg, route intraperitoneal
physchem = conditions: octanol/water, pH 7.4

| Structure (SMILES) | logD (physchem) | further results |
| --- | --- | --- |
| Cc1nc(SCc2cc(N3CCOCC3)cc(NCC#N)n2)sc1C | 2.4 | concentration at 0.5 h [1]: 5.2 µM; Drug uptake (Brain [2]): 4.7 nmol/g; Kp at 0.5 h [3]: 0.9; concentration at 0.5 h [4]: 3.4 µM; Drug uptake (Brain [5]): 0.9 nmol/g; Kp at 0.5 h [6]: 0.27 |
| CCc1oc(CCc2cc(N3CCOCC3)cc(NCC(F)(F)F)n2)nc1C | 3.5 |  |
| Cc1nc(OCc2cc(N3CCOCC3)cc(NCC#N)n2)oc1C | 2.1 |  |
| CCCNc1cc(N2CCOCC2)cc(CCc2nc(C)c(CC)o2)n1 | 2.5 |  |
| Cc1nc(SCc2cc(N3CCOCC3)cc(NCC#N)n2)n(C)c1C | 1 |  |
| CCc1oc(CCc2cc(N3CCOCC3)cc(NC(C)C)n2)nc1C | 2.4 |  |
| CCOC(=O)CNc1cc(N2CCOCC2)cc(CCc2nc(C)c(CC)o2)n1 | 2.8 |  |
| CCc1oc(CCc2cc(N3CCOCC3)cc(NC)n2)nc1C | 1.7 |  |
| CCc1oc(CCc2cc(N3CCOCC3)cc(NCCC#N)n2)nc1C | 2 |  |
| Cc1nc(SCc2cc(N3CCOCC3)cc(NCC#N)n2)oc1C | 2 |  |
| CCc1oc(CCc2cc(N3CCOCC3)cc(NCC#N)n2)nc1C | 2.4 |  |
| CCc1oc(CCc2cc(N3CCOCC3)cc(NC(C)=O)n2)nc1C | 2.3 |  |
| CCc1oc(SCc2cc(N3CCOCC3)cc(NCC#N)n2)nc1C | 2.6 |  |
| CCc1sc(CCc2cc(N3CCOCC3)cc(NC(C)c3cc(Cl)cc(NC(=O)OC(C)C)c3)n2)nc1C (stereo unspecified) | > 4 |  |
| CCNc1cc(N2CCOCC2)cc(CCc2nc(C)c(CC)o2)n1 | 2.2 |  |
